For ten compounds, Ki and Selectivity results are on record in ChEMBL document CHEMBL1135933, “Synthesis of nitroindole derivatives with high affinity and selectivity for melatoninergic binding sites MT(3)” (J Med Chem, 2002).

The structures appear in SMILES notation.

Test [1] concerns the target T1, Melatonin receptor type 1B (Homo sapiens, UniProt P49286).
T1 sequence (P49286 whole entry): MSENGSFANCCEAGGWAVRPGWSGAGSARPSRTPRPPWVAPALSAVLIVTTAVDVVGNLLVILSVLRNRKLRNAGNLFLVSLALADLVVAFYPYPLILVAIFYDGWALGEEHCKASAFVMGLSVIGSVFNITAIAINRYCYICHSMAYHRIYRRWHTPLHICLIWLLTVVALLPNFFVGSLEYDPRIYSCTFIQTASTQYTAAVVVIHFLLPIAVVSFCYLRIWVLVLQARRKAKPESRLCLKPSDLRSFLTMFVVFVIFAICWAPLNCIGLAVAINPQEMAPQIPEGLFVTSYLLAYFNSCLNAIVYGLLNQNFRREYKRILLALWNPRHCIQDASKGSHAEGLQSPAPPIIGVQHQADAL
In words: Inhibition of 2-[125I]iodomelatonin binding to human Melatonin receptor type 1B expressed in HEK293 cells. The test is classed as cell-based.

The target in test [2] is Melatonin receptor type 1A (Homo sapiens, UniProt P48039). As to the kind of experiment: Inhibition of 2-[125I]iodomelatonin binding to human Melatonin receptor type 1A expressed in HEK293 cells. In kind it is cell-based.
Melatonin receptor type 1A, sequence (P48039 whole entry): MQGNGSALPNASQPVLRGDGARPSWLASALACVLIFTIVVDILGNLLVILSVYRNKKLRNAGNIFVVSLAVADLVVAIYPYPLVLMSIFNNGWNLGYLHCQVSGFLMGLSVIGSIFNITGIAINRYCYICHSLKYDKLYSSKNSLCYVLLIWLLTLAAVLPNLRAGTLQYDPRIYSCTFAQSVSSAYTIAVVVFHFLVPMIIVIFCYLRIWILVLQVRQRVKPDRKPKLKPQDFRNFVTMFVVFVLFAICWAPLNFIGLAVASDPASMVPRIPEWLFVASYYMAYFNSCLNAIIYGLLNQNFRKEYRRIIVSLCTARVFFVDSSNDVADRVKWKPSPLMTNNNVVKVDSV
Test [3] is filed under the species Homo sapiens. In words: Selectivity ratio of binding affinity at MT1 receptor relative to MT3 receptor.
The species named for test [4] is Homo sapiens. As to the kind of experiment: Selectivity ratio of binding affinity at MT2 receptor relative to MT3 receptor.

The term Ki denotes the dissociation constant of the complex between target and ligand, obtained from inhibition or displacement. Read a low Ki as a stronger hold on the target. On to `COc1ccc2c(c1)c(CCNC(C)=O)c(I)n2C`, for which the Ki came to 0.047 nM in test [1] and 0.08 nM in test [2].

For the compound `COc1cc([N+](=O)[O-])c2[nH]cc(CCNC(C)=O)c2c1`, the Ki in test [1] stood at 29 nM; in test [2] it was 49 nM.

`COc1ccc2[nH]cc(CCNC(C)=O)c2c1[N+](=O)[O-]`: the Ki is 820 nM in test [1] and 1060 nM in test [2]. The Selectivity in test [3] came to 964; in test [4], 745.

Turning to `COc1cc2c(CCNC(C)=O)c(I)n(C)c2cc1[N+](=O)[O-]`, the results for the Ki in test [1] and in test [2] were 0.77 nM and 1.1 nM, respectively.

With `COc1ccc2[nH]c(I)c(CCNC(C)=O)c2c1[N+](=O)[O-]`, the Ki in test [1] was found to be 23.7 nM; in test [2], 19.2 nM.

On to `COc1ccc2c(c1)c(CCNC(C)=O)cn2C`, for which the Ki in test [1] turned out to be 3.1 nM; in test [2], 2.6 nM. Also, the Selectivity in test [3] turned out to be 0.929; in test [4] it was 1.1.

In the case of `COc1cc2c(CCNC(C)=O)c[nH]c2cc1[N+](=O)[O-]`, the figures for the Ki in test [1] and in test [2] were 5.3 nM and 14.6 nM, respectively.

With `COc1ccc2c(c(CCNC(C)=O)c(I)n2C)c1[N+](=O)[O-]`, the Ki in test [1] was found to be 39 nM; in test [2], 1880 nM.

On to `COc1ccc2c(c(CCNC(C)=O)cn2C)c1[N+](=O)[O-]`, for which the values for the Ki in test [1] and in test [2] were 194 nM and 8560 nM, respectively. The Selectivity in test [3] was 27600; in test [4], 625.

Compound `COc1cc2c(CCNC(C)=O)c(I)[nH]c2cc1[N+](=O)[O-]` came in with an inhibition constant Ki in test [2] of 0.3 nM.
